Laboratory results taken from patent publication US20090069302A1 (SMITHKLINE BEECHAM CORPORATION, priority 2006, published 2009).
pEC50: −log10 of the molar value.

Key:
GK rats [1] = assay: Glucose tolerance test in the chronic study in GK rats; assay type: in vivo, rat; parameters: glucose in glucose tolerance test: unit not given here; conditions: for glucose in glucose tolerance test: 0.3 mg/kg
Protocol: (§1) The results are listed in Tables 4a and 4b, and graphically represented in FIGS. 3a and 3b, respectively.
In the same chronic study in GK rats as in Tables 4a and 4b, an intravenous glucose tolerance test was performed on days 1, 3, 9, and 16.

AXOR109 = target: T1, AXOR109 (Homo sapiens, UniProt Q8TDU6); assay: Human AXOR109/Melanophore Assay; assay type: cell-based; conditions: melanophore assay
T1 construct: expressed in transfected cells; host or cells: melanophore cells, transfected by electroporation
T1 sequence (Q8TDU6 1-330): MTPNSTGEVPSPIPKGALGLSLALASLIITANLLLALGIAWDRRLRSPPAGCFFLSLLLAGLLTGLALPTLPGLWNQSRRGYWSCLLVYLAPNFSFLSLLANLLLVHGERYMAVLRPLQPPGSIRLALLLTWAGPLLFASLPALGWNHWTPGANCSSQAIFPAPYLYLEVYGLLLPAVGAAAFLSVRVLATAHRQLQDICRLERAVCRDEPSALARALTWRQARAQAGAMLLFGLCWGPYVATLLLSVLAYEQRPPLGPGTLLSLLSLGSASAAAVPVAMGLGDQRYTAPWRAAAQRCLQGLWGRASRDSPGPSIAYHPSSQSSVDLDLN
Procedure, shortened: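 Readout is melanosome dispersion in melanophores electroporated with human AXOR109, in buffer containing 10 nM melatonin and 1% DMSO. Transmittance was read before and after 1 h compound exposure across 11-point 3-fold dilutions. Response was normalized to 200 nM alpha-MSH as system max, and pEC50 was obtained from a Hill fit.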

CD rats = assay: Effect on GLP-1 secretion in CD rats, intracolonic injection; assay type: in vivo, rat; conditions: anesthetized CD rats, 2.5 mg intracolonic
Protocol: Twelve ten week old (six per group) anesthetized normal CD rats were dosed with vehicle (0.5% HPMC/0.1% Tween80) or 2.5 mg Example 9 through intracolonic injection at 0 time point after a control blood sample was collected. Blood samples were collected at 5, 15, 30 and 60 minutes after dosing. Plasma active, and […] total GLP-1 were measured (ELISA kits, LINCO), and values were converted to % of controls. […] The results are listed in Tables 2a and 2b, and graphically represented in FIGS. 1a and 1b, respectively.

GK rats [2] = assay: Sixteen day chronic intracolonic dosing study in GK rats (insulin, glucose, glucagon); assay type: in vivo, rat; conditions: 0.3 mg/kg QD intracolonic
Source text: as §1

GK rats [3] = assay: Glucose tolerance test in the chronic study in GK rats; assay type: in vivo, rat; conditions: treated versus vehicle group, in words
[4] = 0 min (control sample before dosing)

In the case of `COc1ccc(S(=O)(=O)N2CCCN(S(=O)(=O)c3ccc(OC)c(OC)c3)CC2)cc1OC` [Example 9, 1,4-bis{[3,4-bis(methyloxy)phenyl]sulfonyl}hexahydro-1H-1,4-diazepine], the “glucose in glucose tolerance test” value (GK rats [1]; day 1, 0.00 min) was 103.67, the “glucose in glucose tolerance test” value (GK rats [1]; day 1, 5.00 min) was 257.17 and the “glucose in glucose tolerance test” value (GK rats [1]; day 1, 15.00 min) was 195.67. The “glucose in glucose tolerance test” value (GK rats [1]; day 1, 30.00 min) was 149.50, the “glucose in glucose tolerance test” value (GK rats [1]; day 1, 60.00 min) was 126.83 and the “glucose in glucose tolerance test” value (GK rats [1]; day 1, 90.00 min) was 158.00. For the same compound, the “glucose in glucose tolerance test” value (GK rats [1]; day 1, 120.00 min) was 173.50, the “glucose in glucose tolerance test” value (GK rats [1]; day 1, −20.00 min) was 107.17 and the “glucose in glucose tolerance test” value (GK rats [1]; day 3, 0.00 min) was 123.00. The “glucose in glucose tolerance test” value (GK rats [1]; day 3, 5.00 min) was 307.40, the “glucose in glucose tolerance test” value (GK rats [1]; day 3, 15.00 min) was 254.80 and the “glucose in glucose tolerance test” value (GK rats [1]; day 3, 30.00 min) was 182.20. For the same compound, the “glucose in glucose tolerance test” value (GK rats [1]; day 3, 60.00 min) was 143.60, the “glucose in glucose tolerance test” value (GK rats [1]; day 3, 90.00 min) was 140.60 and the “glucose in glucose tolerance test” value (GK rats [1]; day 3, 120.00 min) was 137.60. For the same compound, the “glucose in glucose tolerance test” value (GK rats [1]; day 3, −20.00 min) was 144.20, the “glucose in glucose tolerance test” value (GK rats [1]; day 9, 0.00 min) was 129.00 and the “glucose in glucose tolerance test” value (GK rats [1]; day 9, 5.00 min) was 278.80. The “glucose in glucose tolerance test” value (GK rats [1]; day 9, 15.00 min) was 252.40, the “glucose in glucose tolerance test” value (GK rats [1]; day 9, 30.00 min) was 154.80 and the “glucose in glucose tolerance test” value (GK rats [1]; day 9, 60.00 min) was 116.20. The “glucose in glucose tolerance test” value (GK rats [1]; day 9, 90.00 min) was 115.00, the “glucose in glucose tolerance test” value (GK rats [1]; day 9, 120.00 min) was 88.60 and the “glucose in glucose tolerance test” value (GK rats [1]; day 9, −20.00 min) was 131.00. For the same compound, the “glucose in glucose tolerance test” value (GK rats [1]; day 16, 0.00 min) was 174.20, the “glucose in glucose tolerance test” value (GK rats [1]; day 16, 5.00 min) was 275.20 and the “glucose in glucose tolerance test” value (GK rats [1]; day 16, 15.00 min) was 245.80. The “glucose in glucose tolerance test” value (GK rats [1]; day 16, 30.00 min) was 238.80, the “glucose in glucose tolerance test” value (GK rats [1]; day 16, 60.00 min) was 215.40 and the “glucose in glucose tolerance test” value (GK rats [1]; day 16, 90.00 min) was 217.60. For the same compound, the “glucose in glucose tolerance test” value (GK rats [1]; day 16, 120.00 min) was 212.60, the “glucose in glucose tolerance test” value (GK rats [1]; day 16, −20.00 min) was 169.00 and the “development of hyperglycemia on day 16” value (GK rats [1]; chronic study, day 16, in words) was “hyperglycemia had developed in rats receiving vehicle, but not in the rats treated with Example 9”. For the same compound, the Emax (AXOR109; 1 h, normalized to alpha-MSH system max) was 51 to 75%, the pEC50 (AXOR109; AXOR109 transfected melanophores) was 6.00 to 6.90 and the “Portal Vein Active GLP-1 Levels (% of Controls)” value (CD rats; [4]) was 100.00 % of Controls. The “Portal Vein Total GLP-1 Levels (% of Controls)” value (CD rats; [4]) was 100.00 % of Controls, the “Portal Vein Active GLP-1 Levels (% of Controls)” value (CD rats; 5 min) was 175.27 % of Controls and the “Portal Vein Total GLP-1 Levels (% of Controls)” value (CD rats; 5 min) was 182.84 % of Controls. For the same compound, the “Portal Vein Active GLP-1 Levels (% of Controls)” value (CD rats; 15 min) was 352.50 % of Controls, the “Portal Vein Total GLP-1 Levels (% of Controls)” value (CD rats; 15 min) was 308.38 % of Controls and the “Portal Vein Active GLP-1 Levels (% of Controls)” value (CD rats; 30 min) was 298.49 % of Controls. The “Portal Vein Total GLP-1 Levels (% of Controls)” value (CD rats; 30 min) was 263.34 % of Controls, the “Portal Vein Active GLP-1 Levels (% of Controls)” value (CD rats; 60 min) was 286.95 % of Controls and the “Portal Vein Total GLP-1 Levels (% of Controls)” value (CD rats; 60 min) was 246.00 % of Controls. The “active and total GLP-1 level compared to controls” value (CD rats; in words) was “higher level of active and total GLP-1”, the “glucagon (pM)” value (GK rats [2]; day 3) was 21.31 pM and the “glucose” value (GK rats [2]; day 3) was 144.20 mg/dL. The “insulin (pM)” value (GK rats [2]; day 3) was 223.24 pM, the insulin levels (GK rats [2]; day 3 and day 9, in words) was “normal insulin levels” and the “glucagon (pM)” value (GK rats [2]; day 9) was 21.67 pM. The “glucose” value (GK rats [2]; day 9) was 131.00 mg/dL, the “insulin (pM)” value (GK rats [2]; day 9) was 240.29 pM and the “glucagon (pM)” value (GK rats [2]; day 16) was 24.67 pM. For the same compound, the “glucose” value (GK rats [2]; day 16) was 169.00 mg/dL, the “insulin (pM)” value (GK rats [2]; day 16) was 108.09 pM and the glucagon levels (GK rats [2]; day 16, in words) was “no increase in glucagons”. For the same compound, the “glucagon (pM)” value (GK rats [2]; pre dose) was 31.28 pM, the “glucose” value (GK rats [2]; pre dose) was 107.17 mg/dL and the “insulin (pM)” value (GK rats [2]; pre dose) was 269.67 pM. For the same compound, the “development of hyperglycemia compared with vehicle” value (GK rats [2]; sixteen days, in words) was “no hyperglycemia had developed” and the “Glucose excretion during the oral glucose tolerance test” value (GK rats [3]) was “less in the treated group as compared to the vehicle group”.
